Among the test systems are MOLT-4 leukemia; OVCAR-3 ovarian; KM12 colon; NCI-H522 lung; A498 renal; K-562 leukemia; TK-10 renal; BT-549 breast; HOP-92 NSCLC; 786-0 renal.
Common to all, as to experiment: NCI anticancer screen, dose series, 48 h

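Growth conditions: 96-well plates. Treatment: test compound, 48 hours, 5 concentrations. Analysis: linear interpolation between bracketing concentrations; unreached endpoints set to highest concentration. At the GI50, growth is halved. TGI marks complete inhibition of growth.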 A value given as a limit tells only on which side of the number the result lay.

As to `C[C@@H](CS[As](C)C)C(=O)N1CCC[C@H]1C(=O)O`, the GI50 is 0.0933 µM with MOLT-4 leukemia; 0.0736 µM with OVCAR-3 ovarian; 1.9 µM in the experiment with KM12 colon; 0.0715 µM with NCI-H522 lung; 0.804 µM in the experiment with A498 renal; 0.051 µM in the experiment on K-562 leukemia. Further, the GI50 was 0.268 µM in the experiment on TK-10 renal, 0.487 µM with BT-549 breast, 0.0514 µM in the experiment on HOP-92 NSCLC and 0.0752 µM with 786-0 renal. In addition, the TGI was 3.69 µM in the experiment on MOLT-4 leukemia; 0.223 µM in the experiment on OVCAR-3 ovarian; 12.5 µM in the experiment with KM12 colon; 0.199 µM in the experiment with NCI-H522 lung; 9.67 µM in the experiment with A498 renal; 1.1 µM in the experiment with K-562 leukemia. In addition, the TGI in the experiment with TK-10 renal turned out to be 1.11 µM; with BT-549 breast, 2.31 µM; in the experiment with HOP-92 NSCLC, 0.542 µM; with 786-0 renal, 1.01 µM.

Regarding `O=C(N/N=C/c1cc(Cl)ccc1O)c1ccccc1Nc1ccnc(C(F)(F)F)c1`, the GI50 in the experiment with MOLT-4 leukemia was 0.241 µM; in the experiment with OVCAR-3 ovarian, 0.472 µM; with KM12 colon, 0.604 µM; with NCI-H522 lung it was 0.689 µM; in the experiment on A498 renal it was 0.585 µM; in the experiment on K-562 leukemia, 0.686 µM. The GI50 is 0.813 µM in the experiment with TK-10 renal, 1.08 µM with BT-549 breast, 0.833 µM in the experiment with HOP-92 NSCLC and 0.465 µM in the experiment on 786-0 renal. The TGI in the experiment on MOLT-4 leukemia amounted to 6.27 µM; in the experiment with OVCAR-3 ovarian, 9.86 µM; in the experiment on KM12 colon, 11.5 µM; in the experiment with NCI-H522 lung it was 6.53 µM; in the experiment on A498 renal, 7.9 µM; in the experiment on K-562 leukemia, 14.5 µM. Moreover, the TGI with TK-10 renal was > 48 µM; with BT-549 breast, 25.7 µM; with HOP-92 NSCLC it was 12.1 µM; in the experiment with 786-0 renal, 4.29 µM.

In the case of `O=C(N=Nc1c(Cl)c(O)c2ccccc2c1O)C(=O)Nc1cccc(C(F)(F)F)c1`, the GI50 in the experiment with MOLT-4 leukemia was 2.93 µM; in the experiment with OVCAR-3 ovarian, 1.77 µM; with KM12 colon, 5.45 µM; with NCI-H522 lung it was 2.82 µM; with A498 renal, 9.13 µM; with K-562 leukemia, 3.94 µM. The GI50 in the experiment with TK-10 renal was 14.2 µM; in the experiment with BT-549 breast it was 3.74 µM; in the experiment on HOP-92 NSCLC, 1.98 µM; with 786-0 renal it was 12.6 µM. The TGI was determined as 8.88 µM with MOLT-4 leukemia; 4.64 µM in the experiment with OVCAR-3 ovarian; 16.6 µM in the experiment with KM12 colon; 10.9 µM in the experiment with NCI-H522 lung; 23.6 µM with A498 renal; 25.6 µM in the experiment with K-562 leukemia. Also, the TGI in the experiment with TK-10 renal was found to be 27.4 µM; in the experiment on BT-549 breast, 12.5 µM; in the experiment on HOP-92 NSCLC it was 15.6 µM; in the experiment with 786-0 renal, 25.1 µM.

For `O=C1C(Cl)=C(Cl)C(=O)N1c1ccc(F)cc1`, the TGI with MOLT-4 leukemia is 34.8 µM; with OVCAR-3 ovarian, 32.4 µM; with KM12 colon, 50.2 µM; in the experiment on NCI-H522 lung, 5.95 µM; with A498 renal, > 100 µM; in the experiment with K-562 leukemia, > 51.1 µM. Also, the TGI was 35.1 µM in the experiment on TK-10 renal, 30.1 µM in the experiment with BT-549 breast, 35.8 µM with HOP-92 NSCLC and 31 µM with 786-0 renal.

(Values after PubChem BioAssay (NCI).)
